Drawing on patent US6153634A, “4,5-azolo-oxindoles” (Hoffmann-La Roche Inc., priority 1999, dated 2000), this text covers inhibition and IC50 for 19 compounds.

The target in one assay is T1, human Cyclin E/CDK2 (Homo sapiens, UniProt P24941).
T1 construct: made in house; host or cells: insect cells
The experiment in a line: CDK2 FlashPlate Assay (inhibition of Rb phosphorylation). Type of assay: biochemical. The following applies: Cyclin E/CDK2, Rb-coated FlashPlates; for inhibition at 0.5 µM: Concentration 0.5 μM. On the procedure: To determine inhibition of CDK2 activity, purified recombinant retinoblastoma (Rb) protein was coated on 96 well FlashPlates (New England Nuclear, Boston, Mass.). Rb is a natural substrate for phosphorylation by CDK2 (Herwig and Strauss Eurr. J. Biochem., Vol. 246 (1997) pp. 581-601 and references therein). Recombinant active human Cyclin E/CDK2 complexes were partially purified from extracts of insect cells. The active Cyclin E/CDK2 was added to the Rb-coated FlashPlates along with ^33 P-ATP and dilutions of test compounds. Plates were incubated for 25 minutes at room temperature with shaking, then washed and counted in the Topcount scintillation counter (Packard Instrument Co., Downers Grove, Ill.). Dilutions of test compounds were tested in duplicate in each assay. The percent inhibition of Rb phosphorylation, which is a measure of the inhibition of CDK2 activity, was determined according to the following formula: [formula] where "test compound" refers to the average counts per minute of the test duplicates, "nonspecific" refers to the average counts per minute when no Cyclin E/CDK2 was added, and "total" refers to the average counts per minute when no compound was added.

A further assay deals with MDA-MB-435. The experiment in a line: Cell-based antiproliferative (MTT) assay, MDA-MB-435 breast carcinoma. The following applies: Homo sapiens, MDA-MB-435, 120 h, cell line MDA-MB435 (breast), 5 days post addition, one experiment mostly, average where repeated. As to the method:
The estrogen receptor negative epithelial breast carcinoma line (MDA-MB-435) was purchased from American Type Cell Culture Collection (ATCC; Rockville, Md.) and was grown in the medium recommended by ATCC. For analysis of the effect of the test compounds on growth of these cells, the cells were plated at 2000 cells per well in a 96-well tissue culture plate, and were incubated overnight at 37° C. with 5% CO2. The next day, the test compounds were dissolved in 100% dimethyl sulfoxide (DMSO) to yield a 10 mM stock solution. Each compound was diluted with sterile medium to 1 mM in a sufficient quantity to yield a final concentration of 120 μM. The compounds were then serially diluted in medium with 1.2% DMSO. […] The plates were returned to the incubator, and 5 days post addition of test compound, were analyzed as described below. […] Absorbencies were read in a microtiter plate reader (Molecular Dynamics) at a wavelength of 570 nm with a 650 nm reference. Percent inhibition was calculated by subtracting the absorbance of the blank (no cell) wells from all wells, then subtracting the division of the average absorbance of each test duplicate by the average of the controls from 1.00. Inhibitory concentrations (IC50) were determined from the linear regression of a plot of the logarithm of the concentration versus the percent inhibition.

On human Cyclin E/CDK2, `COc1cc[nH]c1/C=C1\C(=O)Nc2ccc3[nH]c(Nc4cccc(C(C)=O)c4)nc3c21` [BB, (Z)-2-[N-(3-Acetylphenyl)amino]-8-[(3-methoxy-1H-pyrrol-2-yl)methylene]-3,6,7,8-tetrahydro-pyrrolo[3,2-e]benzimidazol-7-one] yielded an inhibition at 0.5 µM of less than 50%.

Regarding `COc1cc[nH]c1/C=C1\C(=O)Nc2ccc3[nH]c(NCc4cccc5ccccc45)nc3c21` [WW, (Z)-8-[(3-Methoxy-1H-pyrrol-2-yl)methylene]-2-[N-(1-naphthalenyl)methylamino]-3,6,7,8-tetrahydro-pyrrolo[3,2-e]benzimidazol-7-one], at human Cyclin E/CDK2, the inhibition at 0.5 µM is less than 50%.

On to `COc1ccc(Nc2nc3c4c(ccc3[nH]2)NC(=O)/C4=C\c2[nH]ccc2OC)cc1` [Z, (Z)-2-[N-(4-Methoxyphenyl)amino]-8-[(3-methoxy-1H-pyrrol-2-yl)methylene]-3,6,7,8-tetrahydro-pyrrolo[3,2-e]benzimidazol-7-one], for which, at human Cyclin E/CDK2, the inhibition at 0.5 µM is less than 50%.

At human Cyclin E/CDK2, `COc1cc[nH]c1/C=C1\C(=O)Nc2ccc3[nH]c(NCc4ccc(F)cc4)nc3c21` [FF, (Z)-2-[N-[(4-Fluorophenyl)methyl]amino]-8-[(3-methoxy-1H-pyrrol-2-yl)methylene]-3,6,7,8-tetrahydro-pyrrolo[3,2-e]benzimidazol-7-one] displayed an inhibition at 0.5 µM greater than 50%.

`COc1cc[nH]c1/C=C1\C(=O)Nc2ccc3[nH]c(NCCCc4ccccc4)nc3c21` [XX, (Z)-8-[(3-Methoxy-1H-pyrrol-2-yl)methylene]-2-[N-(3-phenylpropyl)amino]-3,6,7,8-tetrahydro-pyrrolo[3,2-e]benzimidazol-7-one]: the inhibition at 0.5 µM against human Cyclin E/CDK2 was less than 50%.

Turning to `COc1ccc(CCNc2nc3c4c(ccc3[nH]2)NC(=O)/C4=C\c2[nH]ccc2OC)cc1OC` [GG, (Z)-2-[N-[2-(3,4-Dimethoxyphenyl)ethyl]amino]-8-[(3-methoxy-1H-pyrrol-2-yl)methylene]-3,6,7,8-tetrahydro-pyrrolo[3,2-e]benzimidazol-7-one], the inhibition at 0.5 µM against human Cyclin E/CDK2 was less than 50%.

`COc1cc[nH]c1/C=C1\C(=O)Nc2ccc3[nH]c(NCCCCc4ccccc4)nc3c21` [JJ, (Z)-8-[(3-Methoxy-1H-pyrrol-2-yl)methylene]-2-[N-(4-phenylbutyl)amino]-3,6,7,8-tetrahydro-pyrrolo[3,2-e]benzimidazol-7-one]: at human Cyclin E/CDK2, the inhibition at 0.5 µM was less than 50%.

As for `COc1cc[nH]c1/C=C1\C(=O)Nc2ccc([N+](=O)[O-])c(N=[N+]=[N-])c21` [M, (Z)-4-Azido-1,3-dihydro-3-[(3-methoxy-1H-pyrrol-2-yl)methylene]-5-nitro-2H-indol-2-one], the inhibition at 0.5 µM on human Cyclin E/CDK2 is greater than 50%.

In turn, `CCOC(=O)c1ccc(Nc2nc3c4c(ccc3[nH]2)NC(=O)/C4=C\c2[nH]ccc2OC)cc1` [CC, (Z)-4-[[8-[(3-Methoxy-1H-pyrrol-2-yl)methylene]-7-oxo-3,6,7,8-tetrahydro-imidazo[4,5-e]indol-2-yl]amino]-benzoic acid ethyl ester] had an inhibition at 0.5 µM against human Cyclin E/CDK2 of less than 50%.

Regarding `COc1cc[nH]c1/C=C1\C(=O)Nc2ccc3[nH]c(Nc4cccc5ccccc45)nc3c21` [MM, (Z)-8-[(3-Methoxy-1H-pyrrol-2-yl)methylene]-2-[N-(1-naphthyl)amino]-3,6,7,8-tetrahydro-pyrrolo[3,2-e]benzimidazol-7-one], the inhibition at 0.5 µM at human Cyclin E/CDK2 is greater than 50%.

Compound `COc1cc[nH]c1/C=C1\C(=O)Nc2ccc3[nH]c(NCCN4CCCCC4)nc3c21` [NN, (Z)-8-[(3-Methoxy-1H-pyrrol-2-yl)methylene]-2-[N-[2-(N-piperidinyl)ethyl]-amino]-3,6,7,8-tetrahydro-pyrrolo[3,2-e]benzimidazol-7-one] gave an inhibition at 0.5 µM against human Cyclin E/CDK2 greater than 50%.

Turning to `COc1cc[nH]c1/C=C1\C(=O)Nc2ccc3[nH]c(-c4ccc(C(=O)O)cc4)nc3c21` [R], the IC50 against human Cyclin E/CDK2 (33P-ATP, 25 min room temperature) was less than 3.5 µM.

At human Cyclin E/CDK2, `COc1cc[nH]c1/C=C1\C(=O)Nc2ccc3[nH]c(Nc4ccc5c(c4)CCC5)nc3c21` [YY, (Z)-2-[N-(2,3-Dihydro-1H-inden-5-yl)amino]-8-[(3-methoxy-1H-pyrrol-2-yl)methylene]-3,6,7,8-tetrahydro-pyrrolo[3,2-e]benzimidazol-7-one] came in with an inhibition at 0.5 µM of less than 50%.

Regarding `COc1cc[nH]c1/C=C1\C(=O)Nc2ccc3[nH]c(NCc4ccc5c(c4)OCO5)nc3c21` [VV, (Z)-2-[N-(1,3-Benzodioxol-5-yl)methylamino]-8-[(3-methoxy-1H-pyrrol-2-yl)methylene]-3,6,7,8-tetrahydro-pyrrolo[3,2-e]benzimidazol-7-one], at human Cyclin E/CDK2, the inhibition at 0.5 µM was less than 50%.

The compound `COC(=O)c1ccc(Nc2nc3c4c(ccc3[nH]2)NC(=O)/C4=C\c2[nH]ccc2OC)cc1` [EE, (Z)-4-[[8-[(3-Methoxy-1H-pyrrol-2-yl)methylene]-7-oxo-3,6,7,8-tetrahydro-imidazo[4,5-e]indol-2-yl]amino]-benzoic acid methyl ester] had an inhibition at 0.5 µM on human Cyclin E/CDK2 of less than 50%.

Take `COc1ccc(Nc2nc3c4c(ccc3[nH]2)NC(=O)/C4=C\c2[nH]ccc2OC)cc1OC` [Y, (Z)-2-[N-(3,4-Dimethoxyphenyl)amino]-8-[(3-methoxy-1H-pyrrol-2-yl)methylene]-3,6,7,8-tetrahydro-pyrrolo[3,2-e]benzimidazol-7-one]: at human Cyclin E/CDK2, the inhibition at 0.5 µM is less than 50%.

`CCOC(=O)CCCNc1nc2c3c(ccc2[nH]1)NC(=O)/C3=C\c1[nH]ccc1OC` [LL, (Z)-4-[[8-[(3-Methoxy-1H-pyrrol-2-yl)methylene]-7-oxo-3,6,7,8-tetrahydro-imidazo[4,5-e]indol-2-yl]amino]-butanoic acid ethyl ester] came in with an inhibition at 0.5 µM at human Cyclin E/CDK2 greater than 50%.

Take `COc1ccccc1Nc1nc2c3c(ccc2[nH]1)NC(=O)/C3=C\c1[nH]ccc1OC` [II, (Z)-2-[N-(2-Methoxyphenyl)amino]-8-[(3-methoxy-1H-pyrrol-2-yl)methylene]-3,6,7,8-tetrahydro-pyrrolo[3,2-e]benzimidazol-7-one]: the inhibition at 0.5 µM at human Cyclin E/CDK2 is less than 50%.

In turn, `Cc1nc[nH]c1/C=C1\C(=O)Nc2ccc3[nH]cnc3c21` [SS, (Z)-8-[(4-Methyl-1H-imidazol-5-yl)methylene]-3,6,7,8-tetrahydro-pyrrolo[3,2-e]benzimidazol-7-one] had a half-inhibitory concentration (IC50) in the assay on MDA-MB-435 of less than 3.5 µM.

Broadly, the inhibition is the change of the read-out against control, counted positive when it falls. Higher therefore signals strong suppression. One may read the IC50 as the point on the concentration scale where inhibition reaches its midpoint. The low end stands for higher potency, the high end for lower potency.
